Measurements published in ChEMBL document CHEMBL3817834, “Scaffold morphing leading to evolution of 2,4-diaminoquinolines and aminopyrazolopyrimidines as inhibitors of the ATP synthesis pathway” (Medchemcomm, 2016).
In brackets after ≈: the same amount, converted by molar mass. Activity calls are given as the source filed them. No cut-off for these calls is given here.

Columns and labels:
[1] = Selectivity index, ratio of IC50 for bovine heart mitochondrial ATP synthase to IC50 for ATP synthase in Mycobacterium smegmatis inverted membrane vesicles
[2] = Ratio of IC50 for ATP synthase in Mycobacterium smegmatis inverted membrane vesicles to IC50 for Mycobacterium bovis BCG
[3] = Inhibition of ATP synthase in Mycobacterium smegmatis inverted membrane vesicles assessed as reduction in oxidative phosphorylation of ADP incubated for 60 mins in presence of NADH by luciferin/luciferase coupled […] assay; set-up: species or system Mycolicibacterium smegmatis
[4] = system: Mycobacterium tuberculosis; test: Antimycobacterial activity against Mycobacterium tuberculosis under aerobic condition after 7 days by microdilution method; assay type: functional; details: 168 h
[5] = system: Mycobacterium tuberculosis; test: Antimycobacterial activity against drug sensitive Mycobacterium tuberculosis isolate 25618 by turbidometric method; assay type: functional
[6] = system: Mycobacterium tuberculosis; test: Bactericidal activity against Mycobacterium tuberculosis under aerobic condition after 7 days by microdilution method; assay type: functional; details: 168 h
[7] = system: Mycobacterium tuberculosis; test: Bactericidal activity against Mycobacterium tuberculosis under hypoxic condition after 7 days by microdilution method; assay type: functional; details: 168 h
[8] = system: Mycobacterium tuberculosis; test: Antimycobacterial activity against drug sensitive Mycobacterium tuberculosis Beijing (E-47/94) by turbidometric method; assay type: functional
[9] = system: Mycobacterium tuberculosis; test: Antimycobacterial activity against drug sensitive Mycobacterium tuberculosis Erdman by turbidometric method; assay type: functional; details: Erdman = ATCC 35801
[10] = system: Mycobacterium tuberculosis; test: Antimycobacterial activity against drug sensitive Mycobacterium tuberculosis ATCC 27294 by turbidometric method; assay type: functional
[11] = system: Mycobacterium tuberculosis; test: Antimycobacterial activity against drug sensitive Mycobacterium tuberculosis Harlingen by turbidometric method; assay type: functional
[12] = system: Mycobacterium tuberculosis; test: Antimycobacterial activity against Mycobacterium tuberculosis H37Rv infected in Balb/c mouse assessed as reduction in CFU in lungs at 100 to 200 mg/kg, po qd dosed 6 days per week for 2 weeks; assay type: functional, organism-based
[13] = system: Mycobacterium tuberculosis; test: Ratio of MBC for Mycobacterium tuberculosis under hypoxic condition to MIC for Mycobacterium tuberculosis under aerobic condition; assay type: functional
[14] = Inhibition of bovine heart mitochondrial ATP synthase assessed as reduction in oxidative phosphorylation of ADP in presence of NADH by ATP bioluminescence assay; set-up: species or system Bos taurus
[15] = system: Mycobacterium tuberculosis; test: Antimycobacterial activity against Mycobacterium tuberculosis H37Rv infected in Balb/c mouse assessed as log reduction in CFU in lungs at 10 mg/kg, po qd dosed 6 days per week for 2 weeks; assay type: functional
[16] = system: Mycobacterium tuberculosis; test: Bactericidal activity against Mycobacterium tuberculosis under replicating condition assessed as reduction in colony forming units at 3.125 to 200 uM by time kill kinetic study; assay type: functional, organism-based; details: TDE = time-dependent effect
Mus musculus = test: T>MIC in Mycobacterium tuberculosis H37Rv infected Balb/c mouse at 100 to 200 mg/kg, po qd dosed 6 days per week for 2 weeks by LC-MS analysis

| Structure (SMILES) | Ratio IC50 [1] | IC50 [3] [µM] | MIC [4] [µM] | MIC80 [5] [µM] | MBC [6] [µM] | MBC [7] [µM] | MIC80 [8] [µM] | MIC80 [9] [µM] | MIC80 [10] [µM] | MIC80 [11] [µM] | other results |
| --- | --- | --- | --- | --- | --- | --- | --- | --- | --- | --- | --- |
| CN(C)CCOc1ncc(Nc2cc(C(F)(F)F)nc3cc(-c4ccc(F)cc4)nn23)cc1F | 19 | 0.5 | 12.5 (≈ 5.98 µg/mL) | – | – | – | – | – | – | – | Ratio IC50 [2]: 100 |
| CN(C)CCOc1ncc(Nc2cc(N3CCC(c4ccccc4Cl)C3)nc3cc(F)c(F)cc23)cc1F (stereo not given) | 19 | 0.1 | 3.1 (≈ 1.68 µg/mL) | 3.1 (≈ 1.68 µg/mL) | 38 (≈ 20.6 µg/mL) | 50 (≈ 27.1 µg/mL) | 3.1 (≈ 1.68 µg/mL) | 3.1 (≈ 1.68 µg/mL) | 3.1 (≈ 1.68 µg/mL) | 3.1 (≈ 1.68 µg/mL) | Ratio IC50 [2]: 100; Activity [12]: Active; Ratio [13]: 15 |
| COc1cc2nc(NCCC3CCOCC3)nc(Nc3cnc(OCCN(C)C)c(F)c3)c2cc1OC | > 28 | 0.9 | 25 (≈ 12.9 µg/mL) | – | – | – | – | – | – | – | IC50 [14]: > 25 µM |
| COc1cc2nc(NCCC3CCOCC3)nc(Nc3ncc(C(C)C)s3)c2cc1OC | – | 0.1 | 6.2 (≈ 2.84 µg/mL) | – | 25 (≈ 11.4 µg/mL) | 50 (≈ 22.9 µg/mL) | – | – | – | – | Ratio [13]: 15 |
| CC1COc2c(N3CCN(C)CC3)c(F)cc3c(=O)c(C(=O)O)cn1c23 (stereo not given) [OFLOXACIN] | – | – | – | 0.7 (≈ 0.253 µg/mL) | – | – | 0.7 (≈ 0.253 µg/mL) | 0.7 (≈ 0.253 µg/mL) | 0.7 (≈ 0.253 µg/mL) | 0.7 (≈ 0.253 µg/mL) | – |
| CN(C)CCOc1ncc(Nc2cc(-c3ccccc3)nc3cc(-c4ccc(F)cc4)[nH]c23)cc1F | 13 | 0.1 | 0.8 (≈ 0.388 µg/mL) | 3.1 (≈ 1.51 µg/mL) | – | – | 3.1 (≈ 1.51 µg/mL) | 3.1 (≈ 1.51 µg/mL) | 3.1 (≈ 1.51 µg/mL) | 3.1 (≈ 1.51 µg/mL) | Ratio IC50 [2]: 100 |
| COc1nc2ccc(Br)cc2cc1[C@@H](c1ccccc1)[C@@](O)(CCN(C)C)c1cccc2ccccc12 [BEDAQUILINE] | – | 0.005 | 0.2 (≈ 0.111 µg/mL) | < 2 | 1.6 (≈ 0.889 µg/mL) | 4 (≈ 2.22 µg/mL) | < 2 | < 2 | 0.2 (≈ 0.111 µg/mL) | < 2 | Ratio IC50 [2]: 100; Ratio [13]: 15 |
| CCOc1ncc(Nc2cc(NCCC3CCOCC3)nc3ccnn23)cc1F | > 1.2 | 21 | > 50 | – | – | – | – | – | – | – | – |
| COc1cc2nc(NCCc3cccnc3)nc(Nc3cnc(OC)c(C)c3)c2cc1OC | 96 | 0.1 | > 200 | – | – | – | – | – | – | – | – |
| COc1cc2nc(NCCC3CCOCC3)cc(Nc3cnc(OCCN(C)C)c(F)c3)c2cc1OC | 1 | 3.7 | 200 (≈ 103 µg/mL) | – | – | – | – | – | – | – | – |
| COc1cc2nc(NCCC3CCOCC3)nc(Nc3cnc(OC)c(C)c3)c2cc1OC | 10 | 0.4 | 3.1 (≈ 1.41 µg/mL) | – | 25 (≈ 11.3 µg/mL) | 13 (≈ 5.9 µg/mL) | – | – | – | – | Ratio [13]: 15 |
| CN[C@@H]1[C@H](O[C@H]2[C@H](O[C@H]3[C@H](O)[C@@H](O)[C@H](N=C(N)N)[C@@H](O)[C@@H]3N=C(N)N)O[C@@H](C)[C@]2(O)C=O)O[C@@H](CO)[C@H](O)[C@H]1O [STREPTOMYCIN] | – | – | – | 0.3 (≈ 0.174 µg/mL) | – | – | 0.3 (≈ 0.174 µg/mL) | 0.3 (≈ 0.174 µg/mL) | 0.3 (≈ 0.174 µg/mL) | 0.3 (≈ 0.174 µg/mL) | – |
| COc1cc2nc(NCCC3CCOCC3)nc(Nc3cc(C(C)(C)C)n(C)n3)c2cc1OC | 52 | 0.1 | 6.2 (≈ 2.91 µg/mL) | – | 25 (≈ 11.7 µg/mL) | 50 (≈ 23.4 µg/mL) | – | – | – | – | Ratio IC50 [2]: 100; Ratio [13]: 15 |
| CC[C@@H](CO)NCCN[C@@H](CC)CO [ETHAMBUTOL] | – | – | – | 9.8 (≈ 2 µg/mL) | – | – | 9.8 (≈ 2 µg/mL) | 9.8 (≈ 2 µg/mL) | 9.8 (≈ 2 µg/mL) | 9.8 (≈ 2 µg/mL) | – |
| CCOc1ncc(Nc2nc(NCCC3CCOCC3)nc3cc(OC)c(OC)cc23)cc1F | 2.3 | 0.6 | 1.9 (≈ 0.896 µg/mL) | – | 19 (≈ 8.96 µg/mL) | 3 (≈ 1.41 µg/mL) | – | – | – | – | Ratio [13]: 15 |
| COc1cc2nc(N3CCC(c4ccccc4Cl)C3)cc(Nc3cnc(OCCN(C)C)c(F)c3)c2cc1OC (stereo not given) | 128 | 0.04 | 1.6 (≈ 0.906 µg/mL) | 3.1 (≈ 1.75 µg/mL) | 54 (≈ 30.6 µg/mL) | 200 (≈ 113 µg/mL) | 3.1 (≈ 1.75 µg/mL) | 3.1 (≈ 1.75 µg/mL) | 6.3 (≈ 3.57 µg/mL) | 3.1 (≈ 1.75 µg/mL) | Ratio IC50 [2]: 100 |
| COc1cc2nc(NCCc3ccccc3Cl)cc(Nc3cnc(OCCN(C)C)c(F)c3)c2cc1OC | 79 | 0.06 | 3.1 (≈ 1.67 µg/mL) | – | – | – | – | – | – | – | – |
| COc1cc2nc(N3CCC(c4ccccc4Cl)C3)cc(Nc3cnc(NCCN(C)C)c(F)c3)c2cc1OC (stereo not given) | 51 | 0.1 | 1.6 (≈ 0.904 µg/mL) | – | – | – | – | – | – | – | – |
| Cn1nc(Nc2nc(NCCC3CCOCC3)nc3ccccc23)cc1C(C)(C)C | 4.5 | 1.7 | 6.2 (≈ 2.53 µg/mL) | – | – | – | – | – | – | – | – |
| COc1cc2nc(N3CCC(c4ccccc4Cl)C3)cc(Nc3cnc(OCC4CCCN4C)c(F)c3)c2cc1OC (stereo not given) | 44 | 0.06 | 6.2 (≈ 3.67 µg/mL) | – | 50 (≈ 29.6 µg/mL) | 50 (≈ 29.6 µg/mL) | – | – | – | – | Ratio [13]: 15 |
| NNC(=O)c1ccncc1 [ISONIAZID] | – | – | – | 0.2 (≈ 0.0274 µg/mL) | – | – | 0.2 (≈ 0.0274 µg/mL) | 0.2 (≈ 0.0274 µg/mL) | 0.2 (≈ 0.0274 µg/mL) | 0.2 (≈ 0.0274 µg/mL) | Activity [15]: >2 deltalog10CFU |
| CO[C@H]1/C=C/O[C@@]2(C)Oc3c(C)c(O)c4c(O)c(c(/C=N/N5CCN(C)CC5)c(O)c4c3C2=O)NC(=O)/C(C)=C\C=C\[C@H](C)[C@H](O)[C@@H](C)[C@@H](O)[C@@H](C)[C@H](OC(C)=O)[C@@H]1C [RIFAMPIN] | – | – | – | 0.04 (≈ 0.0329 µg/mL) | – | – | 0.04 (≈ 0.0329 µg/mL) | 0.04 (≈ 0.0329 µg/mL) | 0.04 (≈ 0.0329 µg/mL) | 0.04 (≈ 0.0329 µg/mL) | – |
| CCOc1ncc(Nc2cc(NCCC3CCOCC3)nc3cc(OC)c(OC)cc23)cc1F | 3.2 | 0.8 | 6.2 (≈ 2.92 µg/mL) | – | – | – | – | – | – | – | Ratio IC50 [2]: 100 |
| CC(Nc1nc(N2CCCC2)nc2ccccc12)c1ccccc1 (stereo not given) | < 0.04 | 2.5 | 50 (≈ 15.9 µg/mL) | – | – | – | – | – | – | – | – |
| CCOc1ncc(Nc2nc(OCCC3CCOCC3)nc3cc(OC)c(OC)cc23)cc1F | – | 25 | > 200 | – | – | – | – | – | – | – | – |
| CN(C)CCOc1ncc(Nc2cc(-c3ccccc3)nc3cc(-c4ccc(F)cc4)nn23)cc1F | 20 | 0.45 | 6.2 (≈ 3.02 µg/mL) | 6.3 (≈ 3.07 µg/mL) | 28 (≈ 13.6 µg/mL) | 100 (≈ 48.7 µg/mL) | 6.3 (≈ 3.07 µg/mL) | 6.3 (≈ 3.07 µg/mL) | 6.3 (≈ 3.07 µg/mL) | 6.3 (≈ 3.07 µg/mL) | Ratio IC50 [2]: 100; Activity [16]: tde; T>MIC (Mus musculus): 24 h; Activity [12]: Active; Ratio [13]: 15 |
| CC(Nc1nc(N2CCCCC2)nc2ccccc12)c1ccccc1 (stereo not given) | 2.6 | 2.1 | 25 (≈ 8.31 µg/mL) | – | – | – | – | – | – | – | IC50 [14]: 2.6 µM |
| N#CC(C#N)=NNc1cccc(Cl)c1 [CARBONYL CYANIDE M-CHLOROPHENYLHYDRAZONE] | – | 4.8 | – | – | – | – | – | – | – | – | – |
